Experimental data from patent US9315487B2, “Tetrahydroquinoline derivatives useful as bromodomain inhibitors” (GlaxoSmithKline LLC, priority 2011, dated 2016).
Where “and” joins values, the source holds several entries; their conditions need not be identical. Identical values can stand only once.

Columns and labels:
[1] = target: T1, Bromodomain BRD2, BRD3 and BRD4; assay: Fluorescence Anisotropy Binding Assay; parameters: species or system Human; conditions: tested in one or more of the BRD2, BRD3, BRD4 fluorescence anisotropy assays
T1 construct: fused on or other part: six-His tag at the N-terminus
Excerpt: Fluorescence Anisotropy Binding Assay
The binding of the compounds of formula (I) to Bromodomain BRD2, BRD3 and BRD4 may be assessed using a Fluorescence Anisotropy Binding Assay.
All data was normalized to the mean of 16 high and 16 low control wells on each plate. A four parameter curve fit of the following form was then applied: y=a+((b−a)/(1+(10^x/10^c)^d)
Where ‘a’ is the minimum, ‘b’ is the Hill slope, ‘c’ is the pIC50 and ‘d’ or is the maximum.
Recombinant Human Bromodomains (Bromodomain BRD2 (1-473), Bromodomain BRD3 (1-435) and Bromodomain BRD4 (1-477)) were expressed in E. coli cells (in pET15b vector) with a six-His tag at the N-terminal. The His-tagged Bromodomain was extracted from E. coli cells using 0.1 mg/ml lysozyme and sonication. […]
All components were dissolved in buffer composition of 50 mM HEPES pH7.4, 150 mm NaCl and 0.5 mM CHAPS with final concentrations of Bromodomain 2, 75 nM, fluorescent ligand 5 nM. […] Fluorescence anisotropy was read in Envision (λex=485 nm, λEM=530 nm; Dichroic −505 nM). […]
All components were dissolved in buffer of composition 50 mM HEPES pH7.4, 150 mm NaCl and 0.5 mM CHAPS with final concentrations of Bromodomains 3 75 nM, fluorescent ligand 5 nM. […] Fluorescence anisotropy was read in Envision (λex=485 nm, λEM=530 nm; Dichroic −505 nM). […]

[2] = system: LPS induced IL-6 secretion from whole blood; assay: Measurement of LPS induced IL-6 secretion from whole blood; format: cell-based; conditions: 24 h, LPS 200 ng/ml, IL-6 by immunoassay
Description: Measurement of LPS Induced IL-6 Secretion from Whole Blood
Activation of monocytic cells by agonists of toll-like receptors such as bacterial lipopolysaccharide (LPS) results in production of key inflammatory mediators including IL-6. Such pathways are widely considered to be central to the pathophysiology of a range of auto-immune and inflammatory disorders.
Compounds to be tested are diluted to give a range of appropriate concentrations of which 1 μl of the diluted stocks is added to a 96 well plate. Following addition of whole blood (130 μl) the plates are incubated at 37 degrees (5% CO2) for 30 min before the addition of 10 μl of 2.8 ug/ml LPS, diluted in complete RPMI 1640 (final concentration=200 ng/ml), to give a total volume of 140 ul per well. After further incubation for 24 hours at 37 degrees, 140 μl of PBS are added to each well. The plates are sealed, shaken for 10 minutes and then centrifuged (2500 rpm×10 min). 100 μl of the supernatant are removed and IL-6 levels assayed by immunoassay (typically by MesoScale Discovery technology) either immediately or following storage at −20 degrees. Concentration response curves for each compound was generated from the data and an IC50 value was calculated

Bromodomain BRD3 = target: T2, Bromodomain BRD3 (Homo sapiens, UniProt Q15059); assay: Time Resolved Fluorescence Resonance Energy Transfer (TR-FRET) assay, BRD3; format: binding; conditions: BRD3 (1-435), acetylated histone peptide
T2 construct: BRD3 (1-435); made in house; host or cells: E. coli (pET15b vector)
Description: (§1) Time Resolved Fluorescence Resonance […] Transfer (TR-FRET) Assay
(§2) The binding of the compounds of formula (I) to Bromodomains BRD2, BRD3 and BRD4 was assessed using a time resolved fluorescent resonance energy transfer binding assay, that measures the binding of an acetylated histone peptide to the bromodomain protein.
(§3) The bromodomain protein, histone peptide and a variable concentration of test compound are incubated together to reach thermodynamic equilibrium.
(§4) The protected peptide was assembled on a solid-phase synthesiser using preloaded Wang resin and utilising standard Fmoc synthesis protocols. The C-terminal lysine was protected by a hyper acid-labile group allowing for its selective removal at the end of the assembly and attachment of the biotin. The crude peptide was obtained after cleavage from the resin with a mixture of trifluoroacetic acid (TFA), triisopropylsilane and water (95:2.5:2.5) for 3 h at room temperature and was then purified using a C18 reverse-phase column utilising a 0.1% TFA-buffered water/acetonitrile gradient. The resulting fractions were analysed and fractions which were >95% pure by analytical HPLC and giving the correct mw (by MALDiTOF mass spectroscopy) were pooled and freeze dried. The final material was analysed by HPLC to confirm purity.
(§5) Recombinant Human Bromodomains (BRD2 (1-473), BRD3 (1-435) and BRD4 (1-477)) were expressed in E. coli cells (in pET15b vector) with a six-His tag at the N-terminal. The His-tagged Bromodomain was extracted from E. coli cells using sonication and purified using a nickel sepharose 6FF column, the proteins were washed and then eluted with 50 mM Tris-Hcl pH8.0. 300 mM NaCl, 1 mM β-mercaptoethanol and 20 mM Imidazole. Further purification was performed by affinity chromatography on a HisTRAP HP column, eluting with a linear 0-500 mM […] gradient, over 20 column volumes. Final purification was completed by Superdex 200 prep grade size exclusion column. Purified protein was stored at −80 C in 20 mM HEPES pH 7.5 and 100 mM NaCl. Protein identity was confirmed by peptide mass fingerprinting and predicted molecular weight confirmed by mass spectrometry.
(§6) Protocol for Bromodomain BRD2, 3 and 4 Assays:
(§7) All assay components were dissolved in buffer composition of 50 mM HEPES pH7.4, 50 mM NaCl and 0.5 mM CHAPS. The final concentration of bromodomain proteins were 100 nM and the histone peptide was 300 nM, these components are premixed and allowed to equilibrate for 1 hour in the dark. 8 μl of this reaction mixture was added to all wells containing 50 nl of various concentrations of test compound or DMSO vehicle (0.5% final) in Greiner 384 well black low volume microtitre plates and incubated in dark for 60 mins at room temperature. […] detection mixture containing anti-6his XL665 labeled antibody and streptavidin labeled with europium cryptate was added to all wells and a further dark incubation of at least 30 mins was performed. Plates were then read on the Envision platereader, (λex=317 nm, donor λEM=615 nm; acceptor λEM=665 nm; Dichroic LANCE dual). Time resolved fluorescent intensity measurements were made at both emission wavelengths and the ratio of acceptor/donor was calculated and used for data analysis. All data was normalized to the mean of 16 high and 16 low control wells on each plate. A four parameter curve fit of the following form was then applied: y=a+((b−a)/(1+(10^x/10^c)^d)
(§8) Where ‘a’ is the minimum, ‘b’ is the Hill slope, ‘c’ is the pIC50 and ‘d’ is the maximum.

Bromodomain BRD4 = target: T3, Bromodomain BRD4 (Homo sapiens, UniProt O60885); assay: Time Resolved Fluorescence Resonance Energy Transfer (TR-FRET) assay, BRD4; format: binding; conditions: BRD4 (1-477), acetylated histone peptide
T3 construct: BRD4 (1-477); made in house; host or cells: E. coli (pET15b vector)
Description: as §1, §2, §3, §4, §5, §6, §7, §8

Bromodomain BRD2 = target: T4, Bromodomain BRD2 (Homo sapiens, UniProt P25440); assay: Time Resolved Fluorescence Resonance Energy Transfer (TR-FRET) assay, BRD2; format: binding; conditions: BRD2 (1-473), acetylated histone peptide
T4 construct: BRD2 (1-473); made in house; host or cells: E. coli (pET15b vector)
Description: as §1, §2, §3, §4, §5, §6, §7, §8

[3] = system: W12 cells (episomal HPV16 genomes); assay: Measurement of HPV infected cells: W12 cell viability; format: cell-based; conditions: Human papillomavirus 16, 48 h, 2 days
Description: (§9) Measurement of HPV Infected Cells The […] cell clone #20850, derived from a low grade cervical […] (Stanley et al., Int. J. Cancer. V. 43. p. 672-676. 1989), carries episomal HPV16 genomes, maintained at approximately 100 copies per cell. Epithelial cell line C33A, which is not infected with any HPV strain was used as a negative control cell to assess non-specific cytotoxicity. […] and C33A cells were cultured with the compound of Example 2 for 2 days and viable cell content monitored by assaying [ATP] at end of this period. Data was normalised to DMSO control treated cells on day 2.

C33A cells = assay: Measurement of HPV infected cells: C33A negative control cell viability; format: cell-based; conditions: 2 days, [ATP] assay
Description: as §9

[4] = as above; format: cell-based; conditions: human, 3 μM, normalised to DMSO control, read-out: Viability at the maximal tested concentration
Description: as §9

T2 sequence (Q15059 1-435): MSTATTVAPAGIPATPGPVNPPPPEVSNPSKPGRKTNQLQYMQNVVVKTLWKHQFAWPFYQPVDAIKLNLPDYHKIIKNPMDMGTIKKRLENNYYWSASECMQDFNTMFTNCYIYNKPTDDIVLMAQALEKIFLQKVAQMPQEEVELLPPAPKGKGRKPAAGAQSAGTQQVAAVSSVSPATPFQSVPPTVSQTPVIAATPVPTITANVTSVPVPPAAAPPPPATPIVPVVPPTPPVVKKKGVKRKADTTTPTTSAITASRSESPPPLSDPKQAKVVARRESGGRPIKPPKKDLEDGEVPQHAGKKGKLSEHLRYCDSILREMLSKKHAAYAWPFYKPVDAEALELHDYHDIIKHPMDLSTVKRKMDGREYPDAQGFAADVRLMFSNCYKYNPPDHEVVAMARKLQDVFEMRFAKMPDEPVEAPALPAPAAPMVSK
T4 sequence (P25440 1-473): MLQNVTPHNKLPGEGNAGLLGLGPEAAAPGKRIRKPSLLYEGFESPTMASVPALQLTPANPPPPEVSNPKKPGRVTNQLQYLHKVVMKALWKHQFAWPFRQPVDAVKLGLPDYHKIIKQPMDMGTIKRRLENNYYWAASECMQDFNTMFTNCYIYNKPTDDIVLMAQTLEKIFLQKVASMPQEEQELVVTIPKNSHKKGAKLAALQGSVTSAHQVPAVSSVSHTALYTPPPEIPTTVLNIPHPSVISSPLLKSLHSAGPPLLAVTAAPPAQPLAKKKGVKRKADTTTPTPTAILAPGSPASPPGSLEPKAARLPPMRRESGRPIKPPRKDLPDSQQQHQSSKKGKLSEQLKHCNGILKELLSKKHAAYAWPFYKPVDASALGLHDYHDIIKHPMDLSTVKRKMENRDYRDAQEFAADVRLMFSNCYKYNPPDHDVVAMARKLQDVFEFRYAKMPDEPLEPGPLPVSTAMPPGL

| SMILES | pIC50 [1] | IC50 [2] [nM] | IC50 (Bromodomain BRD3) | IC50 (Bromodomain BRD4) | IC50 (Bromodomain BRD2) | viability at 3 µM ([3]; 3 μM, normalised to DMSO control, read-out: Viability at the maximal tested concentration) [%] | IC50 ([3]; [ATP] assay, n=4, read-out: mean pIC50 value, W12 cell viability (converted)) [nM] | effect on C33A negative control cells (viability) (C33A cells) | viability at 2 days, 3 µM [4] [%] |
| --- | --- | --- | --- | --- | --- | --- | --- | --- | --- |
| COCCn1cc(-c2ccc3c(c2)[C@H](NC(=O)OC(C)C)C[C@H](C)N3C(C)=O)cn1 [Example 1, 1-methylethyl ((2S,4R)-1-acetyl-2-methyl-6-{1-[2-(methyloxy)ethyl]-1H-pyrazol-4-yl}-1,2,3,4-tetrahydro-4-quinolinyl)carbamate] | ≥ 6.5 | 126 to 1000 | – | – | – | – | – | – | – |
| COCCn1cc(-c2ccc3c(c2)[C@H](Nc2ccc(C#N)cn2)C[C@H](C)N3C(C)=O)cn1 [Example 2, 6-(((2S,4R)-1-acetyl-6-(1-(2-methoxyethyl)-1H-pyrazol-4-yl)-2-methyl-1,2,3,4-tetrahydroquinolin-4-yl)amino)nicotinonitrile] | – | 200 | 63.1 to 126 nM and 63.1 to 316 nM | 63.1 to 126 nM and 63.1 to 316 nM | 63.1 to 126 nM and 63.1 to 316 nM | 34.8 | 81.3 | limited effect | 73.5 |
| COCCn1cc(-c2ccc3c(c2)[C@H](Nc2ccc(C#N)cn2)C[C@H](C)N3C(C)=O)nn1 [Example 3, 6-(((2S,4R)-1-acetyl-6-(1-(2-methoxyethyl)-1H-1,2,3-triazol-4-yl)-2-methyl-1,2,3,4-tetrahydroquinolin-4-yl)amino)nicotinonitrile] | – | 126 to 1000 | 63.1 to 316 nM | 63.1 to 316 nM | 63.1 to 316 nM | – | – | – | – |
| COCCn1ncc(-c2ccc3c(c2)[C@H](Nc2ccc(C#N)cn2)C[C@H](C)N3C(C)=O)n1 [Example 4, 6-(((2S,4R)-1-acetyl-6-(2-(2-methoxyethyl)-2H-1,2,3-triazol-4-yl)-2-methyl-1,2,3,4-tetrahydroquinolin-4-yl)amino)nicotinonitrile] | – | 126 to 1000 | 63.1 to 316 nM | 63.1 to 316 nM | 63.1 to 316 nM | – | – | – | – |
| COCCn1cc(-c2ccc3c(c2)[C@H](Nc2ccc(Cl)cn2)C[C@H](C)N3C(C)=O)cn1 [Example 5, 1-((2S,4R)-4-((5-chloropyridin-2-yl)amino)-6-(1-(2-methoxyethyl)-1H-pyrazol-4-yl)-2-methyl-3,4-dihydroquinolin-1(2H)-yl)ethanone] | – | 126 to 1000 | 63.1 to 316 nM | 63.1 to 316 nM | 63.1 to 316 nM | – | – | – | – |
| COCCn1cc(-c2ccc3c(c2)[C@H](Nc2ccc(C)cn2)C[C@H](C)N3C(C)=O)cn1 [Example 6, 1-((2S,4R)-6-(1-(2-methoxyethyl)-1H-pyrazol-4-yl)-2-methyl-4-((5-methylpyridin-2-yl)amino)-3,4-dihydroquinolin-1(2H)-yl)ethanone] | – | 126 to 1000 | 63.1 to 316 nM | 63.1 to 316 nM | 63.1 to 316 nM | – | – | – | – |
| COCCn1cc(-c2ccc3c(c2)[C@H](Nc2cccc(Cl)c2)C[C@H](C)N3C(C)=O)cn1 [Example 7, 1-((2S,4R)-4-((3-chlorophenyl)amino)-6-(1-(2-methoxyethyl)-1H-pyrazol-4-yl)-2-methyl-3,4-dihydroquinolin-1(2H)-yl)ethanone] | – | 126 to 1000 | 63.1 to 316 nM | 63.1 to 316 nM | 63.1 to 316 nM | – | – | – | – |
| COCCn1cc(-c2ccc3c(c2)[C@H](Nc2cnc(C)cn2)C[C@H](C)N3C(C)=O)cn1 [Example 8, 1-((2S,4R)-6-(1-(2-methoxyethyl)-1H-pyrazol-4-yl)-2-methyl-4-((5-methylpyrazin-2-yl)amino)-3,4-dihydroquinolin-1(2H)-yl)ethanone] | – | 126 to 1000 | 63.1 to 316 nM | 63.1 to 316 nM | 63.1 to 316 nM | – | – | – | – |
